We go through six molecules from patent US10245249B2, “Pharmaceutical compositions comprising nitroxyl donors” (Cardioxyl Pharmaceuticals, Inc., priority 2013, dated 2019).

Data set [1] concerns beagle dogs. Kind of data set: Canine peripheral vein toxicity model, 24 hour infusion (clinical pathology markers of inflammation: WBC, fibrinogen, CRP). It is filed as in vivo. The conditions noted are these: for NOAEL (μg/kg/min) (actual): based on clinical pathology markers (WBC, fibrinogen, CRP), 24 hour infusion, CAPTISOL 7% w/v, pH 4. As to the method: Key inflammatory markers measured include white blood cells (WBC), fibrinogen, and C-reactive protein (CRP).
After 24 hours of infusion, clinical pathology changes similar to those observed in previous studies using an implanted central catheter were detected.
Studies were conducted in male and female beagle dogs. Animals were allowed free access to drinking water and a commercial canine diet under standard laboratory conditions. Animals were fasted prior to blood sample collections when indicated by the study protocol. Fluorescent lighting was provided via an automatic timer for approximately 12 hours per day. On occasion, the dark cycle was interrupted intermittently due to study-related activities. Temperature and humidity were monitored and recorded daily and maintained to the maximum extent possible between 64° F. to 84° F. and 30% to 70%, respectively. The dogs were acclimated for a period of at least 1 week. During this period, the animals were weighed weekly and observed with respect to general health and any signs of disease. The animals were acclimated to wearing a jacket for at least three days prior to dose administration. Additionally, the animals were also acclimated to wearing an Elizabethan collar (e-collar) during the jacket acclimation.
Animals were catheterized the day prior to dose administration. A percutaneous catheter was placed (using aseptic technique and sterile bandaging) in the cephalic vein distal to the elbow. The animals were free-moving in their cages during continuous infusion dose administration. To facilitate continuous infusion dose administration, the peripheral catheter was attached to an extension set routed underneath a canine jacket and then attached to a tether infusion system. To prevent the animals from accessing/removing the peripherally placed percutaneous catheter, the catheterization site was bandaged using Vet Wrap and an e-collar was placed on the animals for the duration of the treatment (i.e., the catheterized period). During the pretreatment period, the venous catheter was infused continuously at a rate of approximately 2-4 mL/hr with 0.9% sodium chloride for injection, USP (saline) to maintain catheter patency. Prior to dosing, the infusion system was pre-filled (slow bolus infusion) with the respective dosing solution to ensure that dosing began as soon as the infusion pump was started. The infusion line was connected to a reservoir containing the control or test compound and the infusion was started. Test compositions were infused continuously, at a predetermined constant infusion rate (1 or 2 mL/kg/hr), for 24 hours and were compared at molar equivalent dose rates.
A detailed clinical examination of each animal was performed twice daily and body temperature measurements and blood samples for clinical pathology were collected from all animals pre-dose and 6 hours, 12 hours, 24 hours and 72 hours post start of composition infusion. At the termination of the study, all animals were euthanized at their scheduled necropsy and complete necropsy examinations were performed. Selected tissues were collected, fixed and stored for potential future microscopic examination. The cephalic vein containing the infusion catheter was dissected intact along with the brachial vein and examined along its entire length. The location of the catheter tip was marked on the unfixed specimen. After fixation, the specimen was trimmed and processed to slide to provide transverse histologic sections representing the catheter tip and surrounding tissues both proximal and distal to the catheter tip (i.e., 1 cm distal to the catheter tip, at the catheter tip, and 1, 5, 10, 15, and 20 cm proximal to the catheter tip). Relative to the catheter tip, “proximal” was defined as closer to the heart and “distal” was defined as further from the heart.
Each compound was formulated with CAPTISOL® (7% w/v) in sterile water at a pH of 4. […]

Data set [2] deals with dogs. In words: Canine implanted central catheter 72 hour continuous infusion model (clinical and microscopic pathology of vasculature). Type of data set: in vivo. Particulars: for NOAEL (μg/kg/min) (molar equivalent to CXL-1020): based on microscopic pathology markers (edema, hemorrhage, vascular and perivascular inflammation); for toxicological profile relative to CXL-1020: microscopic pathology, Table 8. The method, then:
To determine the cause of the inflammation and hind limb swelling, a series of 72-hour continuous infusion investigative studies were conducted over the following 6 months. […] The first site of inflammation, the catheter insertion site, caused the dog hind limb swelling and inflammation observed in the early-terminated follow-up study. Increasing infusate pH from 4 to 6 decreased inflammation, improving the inflammatory profile by approximately 3-fold (see FIG. 4).
Confirmation of this was obtained through evaluating the nitroxyl donors through detailed histopathology of the vasculature at the site of insertion of into the femoral vein (15 cm distal to the catheter tip), along the catheter track to the catheter tip, and past the tip downstream 20 cm.
A composite score was calculated from the sum of these findings scores. In FIG. 3, the cumulative histology composite score ranges from 0-2 (low severity) to 11-12 (high severity). […] The NOAEL values determined based on these microscopic pathology markers for a series of nitroxyl donors, expressed in molar equivalent dose rates (μg/kg/min) to CXL-1020, are provided in Table 8.

Some results are limits rather than exact numbers.

Regarding `CS(=O)(=O)c1ccccc1S(=O)(=O)NO` [CXL-1020, N-hydroxy-2-methanesulfonylbenzene-1-sulfonamide, reference compound], the “finding in upper forelimb downstream from catheter tip” value in data set [1] (after 6 hours of infusion, percutaneous catheter in cephalic vein, dogs) is on record as “significant edema”. The “microscopic pathology at the catheter tip” value in data set [1] (after 24 hours of infusion, percutaneous catheter in cephalic vein, dogs) is recorded as “severe thrombophlebitis”. Further, the “NOAEL (μg/kg/min) (actual)” value in data set [1] was less than 0.03 µg/kg/min. Further, the “findings around catheter insertion site, at catheter tip and downstream” value in data set [2] (72-hour infusion, dogs) is given as “Vascular inflammation”. Moreover, the “NOAEL (μg/kg/min) (molar equivalent to CXL-1020)” value in data set [2] was less than 3 µg/kg/min. The “dose rates at which significant undesirable side effects were still demonstrated” value in data set [2] (infusate pH 6, dogs) is “greater than or equal to 3 μg/kg/min”. Moreover, in data set [2] (pH 4 formulation, 1:1 molar CXL-1020:CAPTISOL, diluted in 5% dextrose, 72-hour infusion, dogs), the “dose rates causing clinical pathology changes consistent with an inflammatory process” value is “greater than or equal to 0.03 μg/kg/min”.
Take `Cc1ccc(S(=O)(=O)NO)o1` [Compound 1, N-Hydroxy-5-methylfuran-2-sulfonamide]: the “improvement relative to CXL-1020” value in data set [1] (NOAEL, clinical pathology markers) is given as “greater than 660 fold”. For the same molecule, the “NOAEL (μg/kg/min) (actual)” value in data set [1] was greater than 20 µg/kg/min. The “NOAEL compared with CXL-1020” value in data set [1] (clinical pathology markers) is listed as “significantly higher than that of CXL-1020”. Moreover, the “NOAEL (μg/kg/min) (molar equivalent to CXL-1020)” value in data set [2] is no less than 180 µg/kg/min.
As to `CS(=O)(=O)c1cccc(S(=O)(=O)NO)c1` [Compound 2, N-Hydroxy-3-methanesulfonylbenzene-1-sulfonamide], the “NOAEL (μg/kg/min) (actual)” value in data set [1] was found to be 3 µg/kg/min. In data set [1] (clinical pathology markers), the “NOAEL compared with CXL-1020” value is given as “significantly higher than that of CXL-1020”. Further, the “NOAEL (μg/kg/min) (molar equivalent to CXL-1020)” value in data set [2] was no less than 180 µg/kg/min.
Consider `O=S(=O)(NO)c1ccco1` [Compound 83, N-Hydroxyfuran-2-sulfonamide], for which the “NOAEL (μg/kg/min) (actual)” value in data set [1] is 3 µg/kg/min. Moreover, the “NOAEL compared with CXL-1020” value in data set [1] (clinical pathology markers) is recorded as “significantly higher than that of CXL-1020”. Besides, in data set [2], the “NOAEL (μg/kg/min) (molar equivalent to CXL-1020)” value is no less than 90 µg/kg/min and the “toxicological profile relative to CXL-1020” value is recorded as “substantially improved toxicological profile relative to CXL-1020”.
The matching figures for `Cc1ccc(S(=O)(=O)NO)s1` [Compound 84, N-Hydroxy-5-methylthiophene-2-sulfonamide]: 10 µg/kg/min, “significantly higher than that of CXL-1020”, no less than 60 µg/kg/min and “substantially improved toxicological profile relative to CXL-1020”.
The matching figures for `Cn1ccc(S(=O)(=O)NO)n1` [Compound 85, N-Hydroxy-1-methyl-1H-pyrazole-3-sulfonamide]: 3 µg/kg/min, “significantly higher than that of CXL-1020”, no less than 180 µg/kg/min and “substantially improved toxicological profile relative to CXL-1020”.
